Results published in the supplement of paper PMC10307832.

What was measured:
Test in all cases: relative viability (nuclei count vs DMSO), 5 days (fraction); higher = more cells survive
VE-821 = compound: CS(=O)(=O)c1ccc(-c2cnc(N)c(C(=O)Nc3ccccc3)n2)cc1 [VE-821]
Outline: (§1)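 Viability here means nuclei in treated wells divided by nuclei in vehicle wells, reported as the median across plates. Only plates with control CV below 25% and at least one doubling passed. Lung cancer cell lines in 1536-well plates were exposed to five √10-spaced library-drug doses for 5 days and counted from 4× Hoechst images in MetaXpress.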

Vismodegib = compound: CS(=O)(=O)c1ccc(C(=O)Nc2ccc(Cl)c(-c3ccccn3)c2)c(Cl)c1 [Vismodegib]
Outline: as §1

Ruxolitinib = compound: N#CC[C@H](C1CCCC1)n1cc(-c2ncnc3[nH]ccc23)cn1 [Ruxolitinib]
Outline: as §1

Vismodegib + Dasatinib = compound: CS(=O)(=O)c1ccc(C(=O)Nc2ccc(Cl)c(-c3ccccn3)c2)c(Cl)c1 [Vismodegib] + Cc1nc(Nc2ncc(C(=O)Nc3c(C)cccc3Cl)s2)cc(N2CCN(CCO)CC2)n1 [Dasatinib] (partner 0.075 µM)
Outline: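 Lung cancer cell lines in 1536-well plates were dosed by pin tool the day after seeding, either with one drug alone or with a fixed anchor-drug dose plus five library-drug doses (not always all listed) in √10 steps. After 5 days, cells were fixed and their nuclei stained in one step (final 0.05% Triton X-100, 1% formaldehyde, 1 ug/ml Hoechst), then counted on 4× images. Relative viability is the nuclei count in treated wells divided by that in vehicle wells. Values are medians of duplicate plates.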

Cell Line	relative viability (VE-821; 0.08 µM)	relative viability (VE-821; 0.253 µM)	relative viability (VE-821; 0.8 µM)	relative viability (VE-821; 2.53 µM)	relative viability (VE-821; 8 µM)	relative viability (Vismodegib; 0.08 µM)	relative viability (Vismodegib; 0.253 µM)	relative viability (Vismodegib; 0.8 µM)	relative viability (Vismodegib; 2.53 µM)	relative viability (Vismodegib; 8 µM)	relative viability (Ruxolitinib; 0.08 µM)	relative viability (Ruxolitinib; 0.253 µM)	relative viability (Ruxolitinib; 0.8 µM)	relative viability (Ruxolitinib; 2.53 µM)	relative viability (Ruxolitinib; 8 µM)	relative viability (Vismodegib + Dasatinib; first compound 0.08 µM)	relative viability (Vismodegib + Dasatinib; first compound 0.253 µM)	relative viability (Vismodegib + Dasatinib; first compound 0.8 µM)	relative viability (Vismodegib + Dasatinib; first compound 2.53 µM)	relative viability (Vismodegib + Dasatinib; first compound 8 µM)
ChaGo-K-1	1.03	0.882	1	0.967	0.738	0.932	1	1.03	0.959	0.97	1.04	0.928	0.947	0.872	0.735	0.718	0.672	0.622	0.583	0.632
EBC-1	1.07	0.894	0.865	1.05	0.759	0.931	0.965	1.12	0.963	1.06	0.981	1.04	1.1	0.924	0.822	–	–	–	–	–
EKVX	1.12	0.997	0.937	1.08	0.855	0.797	0.945	0.944	0.968	0.941	0.753	0.836	1	0.898	0.742	0.491	0.561	0.604	0.576	0.526
EMC-BAC-2	1.18	0.896	1.02	0.965	0.858	0.99	0.953	0.903	1.01	0.934	0.974	0.946	1.06	0.978	0.678	0.334	0.365	0.285	0.353	0.317
EPLC-272H	1.06	0.916	1.08	1.02	0.663	0.936	0.942	0.875	0.952	0.863	0.966	0.894	0.933	0.906	0.818	0.362	0.367	0.397	0.327	0.312
H3255	0.987	0.961	0.92	1.06	0.944	0.921	0.921	0.951	0.936	0.962	0.73	0.938	1.09	0.969	0.811	0.303	0.329	0.38	0.37	0.309
HARA	1.09	0.747	0.954	1.12	0.812	1	0.883	0.883	0.971	0.954	0.936	1.01	1.03	0.935	0.88	0.263	0.249	0.254	0.339	0.279
HCC-15	1.09	0.966	1.08	1.21	0.996	1.03	0.973	0.977	1.04	0.959	1.01	0.984	1.07	0.943	0.811	0.631	0.58	0.582	0.66	0.585
